We go through ten compounds from ChEMBL document CHEMBL4828742, “Discovery of novel thiophene derivatives as potent neuraminidase inhibitors” (Eur J Med Chem, 2021).

The nature of series [1]: Inhibition of Influenza A virus H5N1 neuraminidase. Details: species or system H5N1 subtype.
The subject of series [2] is H5N1 subtype. The series is described as follows: Potency index, ratio of oseltamivir carboxylate IC50 to test compound IC50 for inhibition of Influenza A virus H5N1 neuraminidase.
Series [3] has as its system H5N1 subtype. Description: Antiviral activity against Influenza A virus H5N1 (A/chicken/Hubei/327/2004(H5N1)) infected in dog MDCK cells assessed as inhibition of virus replication by plaque reduction assay. Format: functional, organism-based. On the technique in general: In a plaque reduction assay, fewer plaques than in the control indicate reduced infectivity or spread.

Series [4] can be described thus: Cytotoxicity against dog MDCK cells assessed as decrease in cell viability by CCK8 assay. Format: cell-based, Canis lupus familiaris.
A short description of series [5]: Selectivity index, ratio of CC50 for cytotoxicity against dog MDCK cells to EC50 for antiviral activity against Influenza A virus (A/chicken/Hubei/327/2004(H5N1)) infected in dog MDCK cells. Conditions: read-out: Ratio CC50/EC50. Format: toxicity, cell-based.
Series [6] has as its system A549. The series is described as follows: Antiviral activity against Influenza A virus H5N1 infected in human A549 cells assessed as inhibition of viral replication by TCID50 assay. Format: functional, cell-based. Conditions: H5N1 subtype.

The IC50 is the midpoint of a concentration-inhibition curve. Low values mean higher potency, high ones lower potency. For orientation: EC50 means the concentration at which the effect is half-maximal. As a reminder, the CC50 is the concentration giving 50% cytotoxicity.

Calls of active or inactive are those of the source. The calls are words filed in the database; no cut-off is given here.

For `CCOC(=O)c1c(NC(=O)COc2cc(Br)ccc2OC)sc(C(=O)OC)c1C`, it took 0.24 µM to reach half-maximal inhibition in series [1] (IC50).
The same measure, in the same setting: to `CCOC(=O)c1c(NC(=O)COc2ccc(C=O)cc2)sc(C(=O)OC)c1C` belongs 8.86 µM; to `CCOC(=O)c1c(NC(=O)COc2cccc3ncccc23)sc(C(=O)OC)c1C`, 0.04 µM; to `CCOC(=O)c1c(NC(=O)COc2cccc(C(C)=O)c2)sc(C(=O)OC)c1C`, 4.77 µM.
Same read-out and setting: to `CCOC(=O)c1c(NC(=O)COc2ccccn2)sc(C(=O)OC)c1C` belongs 0.96 µM; to `CCOC(=O)c1c(NC(=O)COc2ccc(NC(C)=O)cc2)sc(C(=O)OC)c1C`, 0.05 µM; to `CCOC(=O)c1c(NC(=O)COc2ccc(C=O)cc2OCC)sc(C(=O)OC)c1C`, 0.07 µM.
With `CCOC(=O)c1c(NC(=O)COc2cccc(C=O)c2)sc(C(=O)OC)c1C`, the IC50 in series [1] worked out at 5.65 µM.
For `CCOC(=O)c1c(NC(=O)COc2ccc(C=O)cc2OC)sc(C(=O)OC)c1C`, the half-maximal inhibitory concentration (IC50) in series [1] stood at 4.39 µM.
Consider `CCOC(=O)c1c(NC(=O)COc2ccc3ncccc3c2)sc(C(=O)OC)c1C`, for which the Ratio IC50 in series [2] is 2. In series [1], the IC50 is 0.03 µM. For the same compound, the concentration giving a half-maximal response (EC50) in series [3] was 1.59 µM. The CC50 in series [4] was more than 800 µM. Further, the selectivity ratio in series [5] is more than 500. For the same compound, in series [6], the outcome was Active.
